Source: patent US20230047027A1, “COMPOSITIONS AND METHODS USING CANNABINOID COMPOUNDS FOR REGULATING GASTRIC ACID SECRETION TO TREAT GASTROESOPHAGEAL REFLUX DISEASE AND RELATED CONDITIONS” (Demetrix, Inc., priority 2021, published 2023)
pIC50: −log10 of the molar value. Like-named read-outs stand apart in the source and are kept apart here.

How the values were obtained:
H2 receptor [1] = target: T1, H2 receptor (Homo sapiens, UniProt P25021); test: IC50 antagonist activity screen (PathHunter β-Arrestin GPCR assay); format: cell-based; conditions: for Maximum inhibition (%) / Emax: maximum inhibition (antagonism) from IC50 curves, about 60% or higher = strong activity; for Emax: read-out: IC50 (Inhibition - Max Response)
From the text: It has additionally been discovered that the alkyl side chain length of cannabinoid compounds can influence the effect the cannabinoid compounds have on the GPCR receptors. For example, it has been discovered that increasing the length of the alkyl side chain, generally increases the antagonism of CBG and CBD to the H2 receptor. […] The RC50 value indicates the value at which the cannabinoid reached the reference compound's 50% effective concentration.
(§1) A single assay was run. In each run, PathHunter® cell lines were removed from a freezer stock and seeded at a volume of 20 μL into white walled, 384-well microplates and incubated at 37° C. Each cell was pre-incubated with the cannabinoid compound followed by an agonist challenge at the EC80 concentration. […] were then diluted to generate a 5x sample in assay buffer. 5 μL of the 5x sample was then added to cells and incubated at 37° C. for 30 minutes. Finally, 5 μL of 6x EC80 agonist in assay buffer were added to the cells and incubated at 37° C. for 90 minutes or 180 minutes. The assay signal was generated through addition of 12.5 μL or 15 μL (50% V/V) of a detection reagent cocktail followed by a one hour incubation time at room temperature. Microplates were read following signal generation with a PerkinElmer Envision™ (PerkinElmer Inc., Waltham, Mass.) for chemiluminescent signal detection. Reactivity was analyzed using the CBIS data analysis suite (ChemInnovation, CA) where RLU refers to the raw measured values. The percent inhibition was calculated using the formula: % Inhibition=100%*(1−mean RLU of test sample−mean RLU of control)/(mean RLU of EC80 control−mean RLU of vehicle control).
Based on the results of the GPCR reactivity screen, and IC50 antagonist activity screen was run against the H2 receptor. The IC50 antagonist activity screen was run for each of CBG, CBC, CBL, CBN, CBDV, CBD, CBD-C1, CBD-C2, (+)-CBD, CBG-C6, CBG-C7, CBG-C9, CBD-C6, CBD-C7, CBD-C9, CBGA-C6, CBGA-C7, and CBGA-C9. IC50 curves were measured using the same GPCR assay, PathHunter® β-Arrestin from Eurofins DiscoverX Products (Fremont, Calif.), as the GPCR reactivity screen. As used herein, strong activity against a receptor is considered a maximum activity of about 60% or higher. Higher results for antagonism against the H2 receptor are considered better.

H2 receptor [2] = target: T1, H2 receptor; test: GPCR reactivity screen (PathHunter β-Arrestin GPCR assay), antagonist mode; format: cell-based; conditions: for H2 Receptor Antagonist Activity (percent inhibition): single assay run, pre-incubation with cannabinoid, then agonist challenge at EC80, test concentration not given, about 60% or higher = strong activity; for H2 antagonist activity in the GPCR reactivity screen (in words): summary of Table 1; for effect on sensitivity to histamine (in words): Table 1, negative inhibition
Description: To evaluate the H2 antagonist activity of the cannabinoid compounds, a GPCR reactivity assay was performed. The evaluated cannabinoid compounds were: CBN, THCV, CBDVA, CBG, CBL, CBC, CBDV, CBDA, CBD, CBGA, (+)-CBD, CBG-C4, CBD-C1, CBD-C2, CBGV, CBGA-C4, CBGVA, CBCA, and CBLA. Tiotidine was used as the control.
as §1
The percent inhibition is depicted. As used herein, strong activity against a receptor is considered a percent activity of about 60% or higher. Higher results for antagonism against the H2 receptor are considered better.

[3] = value at which the cannabinoid reached the reference compound's (tiotidine) 50% effective concentration, H2 receptor antagonist mode, read-out: RC50 (the source's name)

T1 sequence (P25021 whole entry): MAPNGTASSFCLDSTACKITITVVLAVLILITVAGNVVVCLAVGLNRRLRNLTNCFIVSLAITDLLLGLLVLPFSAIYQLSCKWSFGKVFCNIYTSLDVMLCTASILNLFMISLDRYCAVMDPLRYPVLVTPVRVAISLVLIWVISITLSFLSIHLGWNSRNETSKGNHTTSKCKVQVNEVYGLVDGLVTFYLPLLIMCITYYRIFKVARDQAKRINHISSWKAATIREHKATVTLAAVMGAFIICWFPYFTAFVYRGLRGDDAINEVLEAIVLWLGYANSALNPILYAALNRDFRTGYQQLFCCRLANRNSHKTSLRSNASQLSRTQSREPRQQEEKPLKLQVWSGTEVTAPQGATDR

Compound | Maximum inhibition (%) (H2 receptor [1]) | pIC50 (H2 receptor [1]; [3]) | H2 Receptor Antagonist Activity (percent inhibition) (H2 receptor [2]) [%] | H2 antagonist activity in the GPCR reactivity screen (in words) (H2 receptor [2]) | further results
C=C(C)[C@@H]1CCC(C)=C[C@H]1c1c(O)cc(CCCCCCCCC)cc1O [CBD-C9, cannabidol nonyl] | 56 | 7.00 |  |  | 
CCCCCCCCCc1cc(O)c(C/C=C(\C)CCC=C(C)C)c(O)c1C(=O)O [CBGA-C9, cannabigerolic acid nonyl] | 11 | < 5.00 |  |  | 
C=C(C)[C@@H]1CCC(C)=C[C@H]1c1c(O)cc(CCC)c(C(=O)O)c1O [CBDVA, cannabidivarinic acid] |  |  | 12 | did not demonstrate H2 antagonist activity | 
CCCc1cc(O)c2c(c1)OC(C)(C)[C@@H]1CCC(C)=C[C@@H]21 [THCV, tetrahydrocannabivarin] |  |  | −22 | did not demonstrate H2 antagonist activity | effect on sensitivity to histamine (in words) (H2 receptor [2]): increasing sensitivity to histamine
CCCCCc1cc(O)c(C/C=C(\C)CCC=C(C)C)c(O)c1C(=O)O [CBGA, cannabigerolic acid] |  |  | −3 | did not demonstrate H2 antagonist activity | effect on sensitivity to histamine (in words) (H2 receptor [2]): increasing sensitivity to histamine
CCCCCc1cc(O)c2c(c1)OC(C)(C)c1ccc(C)cc1-2 [CBN, cannabinol] |  |  |  |  | pIC50 (H2 receptor [1]): < 5.00; Emax (H2 receptor [1]): 12%
CCCCCCCc1cc(O)c(C/C=C(\C)CCC=C(C)C)c(O)c1C(=O)O [CBGA-C7, cannabigerolic acid heptyl] | 17 | < 5.00 |  |  | 
C=C(C)[C@@H]1CCC(C)=C[C@H]1c1c(O)cc(CCCCCCC)cc1O [CBD-C7, cannabidol heptyl] | 74 | 6.42 |  |  | 
CCCc1cc(O)c(C/C=C(\C)CCC=C(C)C)c(O)c1C(=O)O [CBGVA, cannabigerovarinic acid] |  |  | 2 | did not demonstrate H2 antagonist activity | 
C=C(C)[C@@H]1CCC(C)=C[C@H]1c1c(O)cc(CCCCC)c(C(=O)O)c1O [CBDA, cannabidiolic acid] |  |  | 4 | did not demonstrate H2 antagonist activity | 
C=C(C)[C@@H]1CCC(C)=C[C@H]1c1c(O)cc(CCCCCC)cc1O [CBD-C6, cannabidol hexyl] | 80 | 6.34 |  |  | 
CCCc1cc(O)c(C/C=C(\C)CCC=C(C)C)c(O)c1 [CBGV, cannabigerivarin] |  |  | 10 | did not demonstrate H2 antagonist activity | 
C=C(C)[C@@H]1CCC(C)=C[C@H]1c1c(O)cc(C)cc1O [CBD-C1, cannabidiorcol] | 53 | < 5.00 | 47 | did not demonstrate H2 antagonist activity | 
CCCCCc1cc(O)c2c(c1)OC1(C)CCC3C1C2C3(C)C (stereo not shown) [CBL, cannabicyclol] |  |  |  |  | pIC50 (H2 receptor [1]): 5.93; Emax (H2 receptor [1]): 64%
(+)-cannabidiol [(+)-CBD] | 42 | < 5.00 | 45 | did not demonstrate H2 antagonist activity | 
CCCCCCCCCc1cc(O)c(C/C=C(\C)CCC=C(C)C)c(O)c1 [CBG-C9, cannabigerol nonyl] | 96 | 5.54 |  |  | 
C=C(C)[C@@H]1CCC(C)=C[C@H]1c1c(O)cc(CC)cc1O [CBD-C2, cannabidol-C2] | 71 | 5.28 |  |  | 
CCCCCCCc1cc(O)c(C/C=C(\C)CCC=C(C)C)c(O)c1 [CBG-C7, cannabigerol heptyl] | 93 | 5.47 |  |  | 
C=C(C)[C@@H]1CCC(C)=C[C@H]1c1c(O)cc(CCCCC)cc1O [CBD, cannabidol] | 64 | 6.08 |  |  | 
CCCCc1cc(O)c(CC=C(C)CCC=C(C)C)c(O)c1 [CBG-C4, cannabigerol butyl] |  |  | −62 | did not demonstrate H2 antagonist activity | effect on sensitivity to histamine (in words) (H2 receptor [2]): increasing sensitivity to histamine
CCCCCc1cc(O)c(C/C=C(\C)CCC=C(C)C)c(O)c1 [CBG, cannabigerol] |  | < 5.00 |  |  | Emax (H2 receptor [1]): 21%
CCCCCc1cc2c(c(O)c1C(=O)O)C1C3C(CCC3(C)O2)C1(C)C (stereo not shown) [CBLA, cannabicyclolic acid] |  |  | 11 | did not demonstrate H2 antagonist activity | 
CCCCCc1cc2c(c(O)c1C(=O)O)C=CC(C)(CCC=C(C)C)O2 (stereo not shown) [CBCA, cannabichromenic acid] |  |  | 12 | did not demonstrate H2 antagonist activity | 
CCCCc1cc(O)c(C/C=C(\C)CCC=C(C)C)c(O)c1C(=O)O [CBGA-C4, cannabigerolic acid butyl] |  |  | 16 | did not demonstrate H2 antagonist activity | 
CCCCCCc1cc(O)c(C/C=C(\C)CCC=C(C)C)c(O)c1C(=O)O [CBGA-C6, cannabigerolic acid hexyl] | 9 | < 5.00 |  |  | 
C=C(C)[C@@H]1CCC(C)=C[C@H]1c1c(O)cc(CCC)cc1O [CBDV, cannabidivarin] |  | 5.35 |  |  | Emax (H2 receptor [1]): 75%
CCCCCc1cc(O)c2c(c1)OC(C)(CCC=C(C)C)C=C2 (stereo not shown) [CBC, cannabichromene] |  |  | 117 |  | pIC50 (H2 receptor [1]): 5.58; Emax (H2 receptor [1]): 62%
CCCCCCc1cc(O)c(C/C=C(\C)CCC=C(C)C)c(O)c1 [CBG-C6, cannabigerol hexyl] | 84 | < 5.00 |  |  | 
